Measurements reported in patent US8916702B2 (priority 2012, dated 2014).
pEC50: −log10 of the molar value. Like-named read-outs stand apart in the source and are kept apart here.

System: HCV pseudoparticles (genotype 1a HCV E1 and E2 envelope, H77C isolate)
Assay: microbe, parasite or virus in culture
Assay type: cell-based
Settings: Hepatitis C virus
[1] = Huh-7, 48 h, HCV pseudoparticles (genotype 1a, H77C) in Huh7 cells, average of duplicate, luciferase 2 days after infection
[2] = Huh-7, read-out: Activity (EC50 class), HCV pseudoparticles (genotype 1a, H77C) in Huh7 cells, EC50 expressed as class A/B
[3] = Huh-7, 48 h, read-out: Activity (EC50 class), HCV pseudoparticle infection of Huh7 cells, luciferase 2 days after infection, EC50 expressed as class A/B
[4] = Huh-7, 48 h, read-out: Activity (EC50 class), HCV pseudoparticles, Huh7 cells, luciferase 2 days after infection, average of duplicates

| Structure (SMILES) | pEC50 [2] | pEC50 [3] | further results |
| --- | --- | --- | --- |
| COC(=O)[C@H](CNC(=O)C(=O)Nc1ccc(-n2nnnc2C)cc1)NC(=O)c1ccc(Nc2nc(NC3(c4ccc(Cl)cc4)CC3)nc(OCC(F)(F)F)n2)cc1 [Compound 3107] | 8.00 to 11.00 | – | pEC50 [1]: 9.04 |
| O=C(NCC[C@H](NC(=O)c1ccc(Nc2nc(NC3(c4ccc(Cl)cc4)CC3)nc(OCC(F)(F)F)n2)cc1)C(=O)O)C(=O)Nc1cc(F)cc(F)c1 [Compound 1507] | – | 8.00 to 11.00 | – |
| O=C(Nc1nccs1)C(=O)N[C@H](CCNC(=O)c1ccc(Nc2nc(NC3(c4ccc(Cl)cc4)CC3)nc(OCC(F)(F)F)n2)cc1)C(=O)O [Compound 3496] | 6.00 to 8.00 | – | – |
| CC(C)(CNC(=O)C(=O)Nc1cc[nH]n1)CNC(=O)c1ccc(Nc2nc(NC3(c4ccc(Cl)cc4)CC3)nc(OCC(F)(F)F)n2)cc1 [Compound 3794] | – | – | pEC50 (Huh-7, 48 h, HCV pseudoparticles, Huh7 cells, luciferase 2 days after infection, average of duplicates): 10.21; pEC50 [4]: 8.00 to 11.00 |
| COC(=O)[C@H](CCNC(=O)C(=O)Nc1cc(F)cc(F)c1)NC(=O)c1ccc(Nc2nc(NC3(c4ccc(Cl)cc4)CC3)nc(OCC(F)(F)F)n2)cc1 [Compound 1506] | – | 8.00 to 11.00 | – |
| COC(=O)[C@H](CNC(=O)C(=O)Nc1cccc(-c2c[nH]cn2)c1)NC(=O)c1ccc(Nc2nc(NC3(c4ccc(Cl)cc4)CC3)nc(OCC(F)(F)F)n2)cc1 [Compound 3732] | – | – | pEC50 [4]: 8.00 to 11.00 |
| O=C(NCCCN(CCO)C(=O)C(=O)N1CCCCC1)c1ccc(Nc2nc(NC3(c4ccc(Cl)cc4)CC3)nc(OCC(F)(F)F)n2)cc1 [Compound 3509] | 8.00 to 11.00 | – | – |
| O=C(NC[C@H](NC(=O)c1ccc(Nc2nc(NC3(c4ccc(Cl)cc4)CC3)nc(OCC(F)(F)F)n2)cc1)C(=O)O)C(=O)Nc1cccc(S(=O)(=O)C(F)(F)F)c1 [Compound 3766] | – | – | pEC50 [4]: 8.00 to 11.00 |
| Cc1ccc2sc(NC(=O)C(=O)NCC(C)(C)CNC(=O)c3ccc(Nc4nc(NC5(c6ccc(Cl)cc6)CC5)nc(OCC(F)(F)F)n4)cc3)nc2c1 [Compound 3818] | – | – | pEC50 [4]: 8.00 to 11.00 |
| CN(C)C(=O)C(=O)NC[C@H](NC(=O)c1ccc(Nc2nc(NC3(c4ccc(Cl)cc4)CC3)nc(OCC(F)(F)F)n2)cc1)C(=O)OCCOCCO [Compound 1023, (S)-2-(2-hydroxyethoxy)ethyl 2-(4-(4-(1-(4-chlorophenyl)cyclopropylamino)-6-(2,2,2-trifluoroethoxy)-1,3,5-triazin-2-ylamino)benzamido)-3-(2-(dimethylamino)-2-oxoacetamido)propanoate] | – | 8.00 to 11.00 | – |
| CCC1(CC)CC1CNC(=O)C(=O)NCC[C@H](NC(=O)c1ccc(Nc2nc(NC3(c4ccc(Cl)cc4)CC3)nc(OCC(F)(F)F)n2)cc1)C(=O)O (stereo partly shown) [Compound 1209] | – | 8.00 to 11.00 | – |
| COc1cc2nc(NC(=O)C(=O)NCC(C)(C)CNC(=O)c3ccc(Nc4nc(NC5(c6ccc(Cl)cc6)CC5)nc(OCC(F)(F)F)n4)cc3F)sc2cc1OC [Compound 3677] | – | – | pEC50 [4]: 8.00 to 11.00 |
| O=C(NCC[C@H](NC(=O)c1ccc(Nc2nc(NC3(c4ccc(Cl)cc4)CC3)nc(OCC(F)(F)F)n2)cc1)C(=O)O)C(=O)NC1C[C@H]2CC[C@@H]1C2 (stereo partly shown) [Compound 1120] | – | 8.00 to 11.00 | – |
| COC(=O)[C@H](CNC(=O)C(=O)Nc1ccc(-n2nc(C)cc2C)cc1)NC(=O)c1ccc(Nc2nc(NC3(c4ccc(Cl)cc4)CC3)nc(OCC(F)(F)F)n2)cc1 [Compound 3109] | 8.00 to 11.00 | – | – |
| O=C(NC[C@H](NC(=O)c1ccc(Nc2nc(NC3(c4ccc(Cl)cc4)CC3)nc(OCC(F)(F)F)n2)cc1)C(=O)O)C(=O)Nc1ccc(N2CCCC2)nc1 [Compound 3776] | – | – | pEC50 [4]: 8.00 to 11.00 |
| COc1ccc(NC(=O)C(=O)NCC(C)(C)CNC(=O)c2ccc(Nc3nc(NC4(c5ccc(Cl)cc5)CC4)nc(OCC(F)(F)F)n3)cc2F)cc1 [Compound 3557] | 8.00 to 11.00 | – | – |
| COC(=O)[C@H](CNC(=O)C(=O)Nc1ccc(Oc2ccc(F)cc2)cc1)NC(=O)c1ccc(Nc2nc(NC3(c4ccc(Cl)cc4)CC3)nc(OCC(F)(F)F)n2)cc1 [Compound 3184] | 8.00 to 11.00 | – | – |
| O=C(NCC[C@H](NC(=O)c1ccc(Nc2nc(NC3(c4ccc(Cl)cc4)CC3)nc(OCC(F)(F)F)n2)cc1)C(=O)O)C(=O)NCc1c(F)cccc1F [Compound 1190] | – | 8.00 to 11.00 | – |
| CC(C)(CNC(=O)C(=O)Nc1ccc(C(=O)c2ccccc2)cc1)CNC(=O)c1ccc(Nc2nc(NC3(c4ccc(Cl)cc4)CC3)nc(OCC(F)(F)F)n2)cc1 [Compound 3142] | 8.00 to 11.00 | – | – |
| CC(C)(CNC(=O)C(=O)Nc1nc2ccc(O)cc2s1)CNC(=O)c1ccc(Nc2nc(NC3(c4ccc(Cl)cc4)CC3)nc(OCC(F)(F)F)n2)cc1F [Compound 3676] | – | – | pEC50 [4]: 8.00 to 11.00 |
| CC(C)(CNC(=O)C(=O)Nc1ccc(CCCC(=O)O)cc1)CNC(=O)c1ccc(Nc2nc(NC3(c4ccc(Cl)cc4)CC3)nc(OCC(F)(F)F)n2)cc1 [Compound 3361] | 8.00 to 11.00 | – | pEC50 [1]: 9.80 |
| COC(=O)[C@H](CCNC(=O)C(=O)Nc1ccnn1C)NC(=O)c1ccc(Nc2nc(NC3(c4ccc(Cl)cc4)CC3)nc(OCC(F)(F)F)n2)cc1 [Compound 1239] | – | 8.00 to 11.00 | – |
| O=C(NCC[C@H](NC(=O)c1ccc(Nc2nc(NC3(c4ccc(Cl)cc4)CC3)nc(OCC(F)(F)F)n2)cc1)C(=O)O)C(=O)Nc1ccc(Cn2ccnc2)cc1 [Compound 3540] | 6.00 to 8.00 | – | pEC50 [1]: 7.58 |

| Structure (SMILES) | pEC50 [2] | pEC50 [3] | further results |
| --- | --- | --- | --- |
| O=C(NCC[C@H](NC(=O)c1ccc(Nc2nc(NC3(c4ccc(Cl)cc4)CC3)nc(OCC(F)(F)F)n2)cc1)C(=O)O)C(=O)NC1CCC(O)CC1 (stereo partly shown) [Compound 1118] | – | 8.00 to 11.00 | – |
| O=C(NC[C@H](NC(=O)c1ccc(Nc2nc(NC3(c4ccc(Cl)cc4)CC3)nc(OCC(F)(F)F)n2)cc1)C(=O)Cl)C(=O)Nc1cccc(C(=O)Nc2ccccc2)c1 [Compound 3747] | – | – | pEC50 [4]: 8.00 to 11.00 |
| CC(C)(CNC(=O)c1ccc(Nc2nc(NC3(c4ccc(Cl)cc4)CC3)nc(OCC(F)(F)F)n2)cc1)NC(=O)C(=O)Nc1ccccc1 [Compound 3425] | 8.00 to 11.00 | – | pEC50 [1]: 10.48 |
| O=C(NCC[C@H](NC(=O)c1ccc(Nc2nc(NC3(c4ccc(Cl)cc4)CC3)nc(OCC(F)(F)F)n2)cc1)C(=O)O)C(=O)Nc1cccc(S(=O)(=O)N2CCCCC2)c1 [Compound 3641] | – | – | pEC50 [4]: 8.00 to 11.00 |
| CC(CNC(=O)C(=O)NCc1ccc(F)cc1)CNC(=O)c1ccc(Nc2nc(NC3(c4ccc(Cl)cc4)CC3)nc(OCC(F)(F)F)n2)cc1 (stereo not shown) [Compound 3346] | 8.00 to 11.00 | – | pEC50 [1]: 10.17 |
| O=C(NC/C(=N/C(=O)c1ccc(Nc2nc(NC3(c4ccc(Cl)cc4)CC3)nc(OCC(F)(F)F)n2)cc1)C(=O)O)C(=O)Nc1ccc(OCC(F)(F)F)cc1 [Compound 3164] | 8.00 to 11.00 | – | pEC50 [1]: 9.17 |
| O=C(NCC[C@@H](NC(=O)c1ccc(Nc2nc(NC3(c4ccc(Cl)cc4)CC3)nc(OCC(F)(F)F)n2)cc1)C(=O)O)C(=O)Nc1ccc(Cl)cc1 [Compound 1555] | – | 8.00 to 11.00 | – |
| O=C(NCC[C@H](NC(=O)c1ccc(Nc2nc(NC3(c4ccc(Cl)cc4)CC3)nc(OCC(F)(F)F)n2)cc1)C(=O)O)C(=O)NCC1CC1c1ccc(F)cc1 (stereo partly shown) [Compound 1438] | – | 8.00 to 11.00 | – |
| COC(=O)[C@H](CNC(=O)C(=O)Nc1cc[nH]n1)NC(=O)c1ccc(Nc2nc(NC3(c4ccc(Cl)cc4)CC3)nc(OCC(F)(F)F)n2)cc1 [Compound 1245] | – | 8.00 to 11.00 | pEC50 (Huh-7, 48 h, HCV pseudoparticle infection of Huh7 cells, luciferase 2 days after infection, average of duplicates): 8.77 |
| COC(=O)[C@@H](CCNC(=O)C(=O)Nc1ccc(Oc2cccnc2)nc1)NC(=O)c1ccc(Nc2nc(NC3(c4ccc(Cl)cc4)CC3)nc(OCC(F)(F)F)n2)cc1 [Compound 3582] | 8.00 to 11.00 | – | pEC50 [1]: 8.05 |
| CCOC(=O)/C=C/c1ccc(NC(=O)C(=O)NCC(C)(C)CNC(=O)c2ccc(Nc3nc(NC4(c5ccc(Cl)cc5)CC4)nc(OCC(F)(F)F)n3)cc2)cc1 [Compound 3144] | 8.00 to 11.00 | – | – |
| COC(=O)[C@H](CCNC(=O)C(=O)NCC1OCCc2ccccc21)NC(=O)c1ccc(Nc2nc(NC3(c4ccc(Cl)cc4)CC3)nc(OCC(F)(F)F)n2)cc1 (stereo partly shown) [Compound 1320] | – | 8.00 to 11.00 | – |
| CC(C)(CNC(=O)C(=O)Nc1ccc(Cl)cc1F)CNC(=O)c1ccc(Nc2nc(NC3(c4ccc(Cl)cc4)CC3)nc(OCC(F)(F)F)n2)cc1 [Compound 3452] | 8.00 to 11.00 | – | – |
| O=C(Nc1cc(F)cc(F)c1)C(=O)N[C@H](CCNC(=O)c1ccc(Nc2nc(NC3(c4ccc(Cl)cc4)CC3)nc(OCC(F)(F)F)n2)cc1)C(=O)O [Compound 3493] | 8.00 to 11.00 | – | – |
| CC(C)(CNC(=O)C(=O)Nc1ccc(Cl)nc1)CNC(=O)c1ccc(Nc2nc(NC3(c4ccc(Cl)cc4)CC3)nc(OCC(F)(F)F)n2)cc1 [Compound 3255] | 8.00 to 11.00 | – | pEC50 [1]: 10.54 |
| CCOc1ccc(NC(=O)C(=O)NCC[C@H](NC(=O)c2ccc(Nc3nc(NC4(c5ccc(Cl)cc5)CC4)nc(OCC(F)(F)F)n3)cc2)C(=O)O)cc1 [Compound 3548] | 8.00 to 11.00 | – | – |
| O=C(NCCc1cccnc1)C(=O)NCC[C@H](NC(=O)c1ccc(Nc2nc(NC3(c4ccc(Cl)cc4)CC3)nc(OCC(F)(F)F)n2)cc1)C(=O)O [Compound 1337] | – | 8.00 to 11.00 | – |
| C=Cc1cccc(NC(=O)C(=O)NCC(C)(C)CNC(=O)c2ccc(Nc3nc(NC4(c5ccc(Cl)cc5)CC4)nc(OCC(F)(F)F)n3)cc2)c1 [Compound 3670] | – | – | pEC50 [4]: 8.00 to 11.00 |
| COC(=O)[C@H](CNC(=O)C(=O)NC1Cc2ccccc2C1)NC(=O)c1ccc(Nc2nc(NC3(c4ccc(Cl)cc4)CC3)nc(OCC(F)(F)F)n2)cc1 [Compound 1291] | – | 8.00 to 11.00 | – |
| O=C(NC[C@H](NC(=O)c1ccc(Nc2nc(NC3(c4ccc(Cl)cc4)CC3)nc(OCC(F)(F)F)n2)cc1)C(=O)O)C(=O)Nc1ccc(-n2ccnc2)cc1 [Compound 3268] | 8.00 to 11.00 | – | – |
| O=C(NC[C@H](NC(=O)c1ccc(Nc2nc(NC3(c4ccc(Cl)cc4)CC3)nc(OCC(F)(F)F)n2)cc1)C(=O)O)C(=O)Nn1cnnc1 [Compound 1350] | – | 6.00 to 8.00 | – |
| COc1ccc(C(NC(=O)C(=O)NCC[C@H](NC(=O)c2ccc(Nc3nc(NC4(c5ccc(Cl)cc5)CC4)nc(OCC(F)(F)F)n3)cc2)C(=O)O)C2CC2)cc1 (stereo partly shown) [Compound 1437] | – | 8.00 to 11.00 | – |
